# Measured values: ChEMBL document CHEMBL3868599, “Strategy for designing selective α-l-rhamnosidase inhibitors: Synthesis and biological evaluation of l-DMDP cyclic isothioureas” (Bioorg Med Chem, 2017)
# How the values were obtained:
# [1] = species: Rattus norvegicus; experiment: Inhibition of rat intestinal maltase assessed as D-glucose level at 100 uM using maltose as substrate measured after 10 to 30 mins
# [2] = species: Bos taurus; experiment: Inhibition of bovine liver beta-glucosidase at 100 uM using p-nitrophenyl-glycoside as substrate by spectrophotometric method
# [3] = Inhibition of Penicillium decumbens alpha-L-rhamnosidase using p-nitrophenyl-glycoside as substrate by spectrophotometric method
# [4] = test system: Oryza sativa; experiment: Inhibition of rice alpha-glucosidase at 100 uM using p-nitrophenyl-glycoside as substrate by spectrophotometric method
# [5] = biological target: T1, Uncharacterized protein (Sus scrofa) (UniProt I3LIR5); experiment: Inhibition of porcine kidney trehalase assessed as D-glucose level at 100 uM using maltose as substrate measured after 10 to 30 mins
# T1 sequence (whole entry): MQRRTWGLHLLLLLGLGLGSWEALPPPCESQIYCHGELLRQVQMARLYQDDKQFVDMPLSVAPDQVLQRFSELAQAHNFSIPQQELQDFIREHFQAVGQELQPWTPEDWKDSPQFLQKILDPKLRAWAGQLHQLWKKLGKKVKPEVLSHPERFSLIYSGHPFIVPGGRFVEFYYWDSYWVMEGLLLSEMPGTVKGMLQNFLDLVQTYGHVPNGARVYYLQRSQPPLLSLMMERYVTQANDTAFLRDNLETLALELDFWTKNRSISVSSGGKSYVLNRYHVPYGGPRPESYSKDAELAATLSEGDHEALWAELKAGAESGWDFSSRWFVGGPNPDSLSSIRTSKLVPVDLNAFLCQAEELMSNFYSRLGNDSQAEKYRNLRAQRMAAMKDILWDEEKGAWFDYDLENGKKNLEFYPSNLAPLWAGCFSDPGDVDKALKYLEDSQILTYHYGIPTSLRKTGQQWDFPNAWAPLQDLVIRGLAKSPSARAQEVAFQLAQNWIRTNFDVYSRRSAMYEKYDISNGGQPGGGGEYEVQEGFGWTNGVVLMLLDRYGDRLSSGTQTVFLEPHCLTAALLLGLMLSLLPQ
# [6] = biological target: T2, Beta-galactosidase (Bos taurus) (UniProt Q58D55); experiment: Inhibition of bovine liver beta-galactosidase at 100 uM using p-nitrophenyl-glycoside as substrate by spectrophotometric method
# T2 sequence (whole entry): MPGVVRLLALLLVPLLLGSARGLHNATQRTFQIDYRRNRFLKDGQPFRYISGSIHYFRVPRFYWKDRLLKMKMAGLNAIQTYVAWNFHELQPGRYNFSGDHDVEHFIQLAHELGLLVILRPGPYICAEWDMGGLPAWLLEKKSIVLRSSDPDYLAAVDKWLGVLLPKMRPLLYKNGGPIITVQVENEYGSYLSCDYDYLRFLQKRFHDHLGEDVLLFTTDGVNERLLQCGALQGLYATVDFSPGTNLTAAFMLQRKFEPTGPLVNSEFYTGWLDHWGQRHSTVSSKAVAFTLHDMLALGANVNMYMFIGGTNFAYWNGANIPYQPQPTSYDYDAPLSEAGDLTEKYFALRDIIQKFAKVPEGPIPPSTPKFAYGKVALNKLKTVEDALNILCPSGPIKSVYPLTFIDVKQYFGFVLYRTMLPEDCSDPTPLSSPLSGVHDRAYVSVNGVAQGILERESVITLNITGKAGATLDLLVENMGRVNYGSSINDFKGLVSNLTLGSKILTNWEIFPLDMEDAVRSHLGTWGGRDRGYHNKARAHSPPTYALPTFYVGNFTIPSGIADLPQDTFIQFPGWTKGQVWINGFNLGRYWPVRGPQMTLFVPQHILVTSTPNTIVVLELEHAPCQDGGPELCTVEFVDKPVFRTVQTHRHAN
# [7] = species: Homo sapiens; experiment: Inhibition of human lysosomal beta-glucosidase at 100 uM using 4-methylumbelliferyl-beta-D-glucopyranoside as substrate preincubated for 45 mins followed by substrate addition measured after 30 mins by fluorescence spectrophotometric method
# [8] = test system: Prunus dulcis; experiment: Inhibition of almond beta-glucosidase at 100 uM using p-nitrophenyl-glycoside as substrate by spectrophotometric method
# [9] = test system: Escherichia coli; experiment: Inhibition of Escherichia coli beta-glucuronidase at 100 uM using p-nitrophenyl-glycoside as substrate by spectrophotometric method
# [10] = test system: Aspergillus niger; experiment: Inhibition of Aspergillus niger amyloglucosidase assessed as D-glucose level at 100 uM using maltose as substrate measured after 10 to 30 mins
# [11] = biological target: T3, Tissue alpha-L-fucosidase (Bos taurus) (UniProt Q2KIM0); experiment: Inhibition of bovine kidney alpha-L-fucosidase at 100 uM using p-nitrophenyl-glycoside as substrate by spectrophotometric method
# T3 sequence (whole entry): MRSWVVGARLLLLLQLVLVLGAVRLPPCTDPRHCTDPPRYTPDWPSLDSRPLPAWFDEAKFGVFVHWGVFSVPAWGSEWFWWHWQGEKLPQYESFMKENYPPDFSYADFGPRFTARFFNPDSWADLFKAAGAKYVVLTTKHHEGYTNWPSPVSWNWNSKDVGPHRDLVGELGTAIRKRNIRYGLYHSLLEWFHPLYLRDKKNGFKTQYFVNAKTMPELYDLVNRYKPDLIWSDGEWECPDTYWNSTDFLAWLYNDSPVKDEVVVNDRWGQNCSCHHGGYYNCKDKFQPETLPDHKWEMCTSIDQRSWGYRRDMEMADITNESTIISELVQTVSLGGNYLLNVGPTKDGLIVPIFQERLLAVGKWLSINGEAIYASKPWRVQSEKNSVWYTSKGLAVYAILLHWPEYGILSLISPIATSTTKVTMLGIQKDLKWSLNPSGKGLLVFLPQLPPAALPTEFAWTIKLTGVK
# [12] = biological target: T4, Beta-galactosidase (Bos taurus, UniProt Q58D55); experiment: Inhibition of bovine liver beta-galactosidase using p-nitrophenyl-glycoside as substrate by spectrophotometric method
# T4 sequence (Q58D55 whole entry): T2 sequence (whole entry)
# [13] = Inhibition of bovine liver beta-glucosidase using p-nitrophenyl-glycoside as substrate by spectrophotometric method; design: species or system Bos taurus
# [14] = test system: Penicillium decumbens; experiment: Inhibition of Penicillium decumbens alpha-L-rhamnosidase at 100 uM using p-nitrophenyl-glycoside as substrate by spectrophotometric method
# [15] = Inhibition of human lysosomal beta-glucosidase using 4-methylumbelliferyl-beta-D-glucopyranoside as substrate preincubated for 45 mins followed by substrate addition measured after 30 mins by fluorescence spectrophotometric method
# [16] = Inhibition of rice alpha-glucosidase using p-nitrophenyl-glycoside as substrate by spectrophotometric method; design: species or system Oryza sativa
# [17] = species: Bos taurus; experiment: Inhibition of bovine liver beta-glucosidase at 1000 uM using p-nitrophenyl-glycoside as substrate by spectrophotometric method
# [18] = biological target: T3, Tissue alpha-L-fucosidase (Bos taurus); experiment: Inhibition of bovine kidney alpha-L-fucosidase at 1000 uM using p-nitrophenyl-glycoside as substrate by spectrophotometric method
# [19] = test system: Escherichia coli; experiment: Inhibition of Escherichia coli beta-glucuronidase at 1000 uM using p-nitrophenyl-glycoside as substrate by spectrophotometric method
# [20] = species: Homo sapiens; experiment: Inhibition of human lysosomal beta-glucosidase at 1000 uM using 4-methylumbelliferyl-beta-D-glucopyranoside as substrate preincubated for 45 mins followed by substrate addition measured after 30 mins by fluorescence spectrophotometric method
# [21] = test system: Aspergillus niger; experiment: Inhibition of Aspergillus niger amyloglucosidase assessed as D-glucose level at 1000 uM using maltose as substrate measured after 10 to 30 mins
# [22] = species: Rattus norvegicus; experiment: Inhibition of rat intestinal maltase assessed as D-glucose level at 1000 uM using maltose as substrate measured after 10 to 30 mins
# [23] = test system: Prunus dulcis; experiment: Inhibition of almond beta-glucosidase at 1000 uM using p-nitrophenyl-glycoside as substrate by spectrophotometric method
# [24] = biological target: T1, Uncharacterized protein (Sus scrofa); experiment: Inhibition of porcine kidney trehalase assessed as D-glucose level at 1000 uM using maltose as substrate measured after 10 to 30 mins
SMILES,inhibition [1] [%],inhibition [2] [%],IC50 [3] [µM],inhibition [4] [%],inhibition [5] [%],inhibition [6] [%],inhibition [7] [%],inhibition [8] [%],inhibition [9] [%],inhibition [10] [%],inhibition [11] [%],IC50 [12] [µM],IC50 [13] [µM],inhibition [14] [%],IC50 [15] [µM],other results
CCCCCCCCCCCCNC(=S)N1[C@@H](CO)[C@H](O)[C@@H](O)[C@@H]1CO,< 50,–,–,< 50,< 50,–,–,< 50,< 50,< 50,< 50,30,36,< 50,73,–
CCCC/N=C1/SC[C@H]2[C@H](O)[C@@H](O)[C@H](CO)N12,–,–,37,–,–,–,–,–,–,–,–,719,–,–,–,IC50 [16]: 339 µM; inhibition [17]: < 50%; inhibition [18]: < 50%; inhibition [19]: < 50%; inhibition [20]: < 50%; inhibition [21]: < 50%; inhibition [22]: < 50%; inhibition [23]: < 50%; inhibition [24]: < 50%
CCCCCCCCCCNC(=S)N1[C@@H](CO)[C@H](O)[C@@H](O)[C@@H]1CO,< 50,–,–,< 50,< 50,–,–,< 50,< 50,< 50,< 50,61,16,< 50,65,–
CCCCCCCCCCNC(=S)N1[C@H](CO)[C@@H](O)[C@H](O)[C@H]1CO,< 50,< 50,–,< 50,< 50,–,–,< 50,< 50,< 50,< 50,100,–,< 50,0.74,–
OC[C@H]1[C@H](O)[C@@H](O)[C@@H]2CS/C(=N/CCCCCCCc3ccccc3)N12,< 50,< 50,1,< 50,< 50,< 50,< 50,< 50,< 50,< 50,< 50,–,–,–,–,–
CCCCCCCCCCCCNC(=S)N1[C@H](CO)[C@@H](O)[C@H](O)[C@H]1CO,< 50,–,–,< 50,< 50,–,–,< 50,< 50,< 50,< 50,24,23,< 50,0.16,–

# Continued, in another order:
inhibition [1] [%],inhibition [2] [%],IC50 [3] [µM],inhibition [4] [%],inhibition [5] [%],inhibition [6] [%],inhibition [7] [%],inhibition [8] [%],inhibition [9] [%],inhibition [10] [%],inhibition [11] [%],IC50 [12] [µM],IC50 [13] [µM],inhibition [14] [%],IC50 [15] [µM],SMILES,other results
< 50,< 50,2.2,< 50,< 50,< 50,< 50,< 50,< 50,< 50,< 50,–,–,–,–,OC[C@H]1[C@H](O)[C@@H](O)[C@@H]2CS/C(=N/Cc3ccccc3)N12,–
< 50,< 50,1.8,< 50,< 50,< 50,< 50,< 50,< 50,< 50,< 50,–,–,–,–,OC[C@H]1[C@H](O)[C@@H](O)[C@@H]2CS/C(=N/CCCCCc3ccccc3)N12,–
< 50,< 50,6.8,< 50,< 50,< 50,< 50,< 50,< 50,< 50,< 50,–,–,–,–,OC[C@H]1[C@H](O)[C@@H](O)[C@@H]2CS/C(=N/CCCc3ccccc3)N12,–
